Reference: US6737383B1, “Herbicidal oxadiazolidines” (priority 1999, dated 2004)

Legend:
bedstraw = experiment: Test B pre/postemergence bedstraw; format: in vivo, Galium aparine
In short: (§1)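 Herbicidal effect was estimated by eye on a ten-point control scale after plants spent twelve to sixteen days in a greenhouse following soil or foliar treatment. Foliar sprays targeted plants at one to four leaves; all doses were formulated in a non-phytotoxic solvent with surfactant.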

blackgrass = experiment: Test B pre/postemergence blackgrass; format: in vivo, Alopecurus myosuroides
In short: as §1

surinam grass = experiment: Test B pre/postemergence surinam grass; format: in vivo, Brachiaria decumbens
In short: as §1

cocklebur = experiment: Test B pre/postemergence cocklebur; format: in vivo, Xanthium strumarium
In short: as §1

corn = experiment: Test B pre/postemergence corn; format: in vivo, Zea mays
In short: as §1

crabgrass = experiment: Test B pre/postemergence crabgrass; format: in vivo, Digitaria sanguinalis
In short: as §1

giant foxtail = experiment: Test B pre/postemergence giant foxtail; format: in vivo, Setaria faberii
In short: as §1

pigweed = experiment: Test B pre/postemergence pigweed; format: in vivo, Amaranthus retroflexus
In short: as §1

soybean = experiment: Test B pre/postemergence soybean; format: in vivo, Glycine max
In short: as §1

sugar beet = experiment: Test B pre/postemergence sugar beet; format: in vivo, Beta vulgaris
In short: as §1

velvetleaf = experiment: Test B pre/postemergence velvetleaf; format: in vivo, Abutilon theophrasti
In short: as §1

wheat = experiment: Test B pre/postemergence wheat; format: in vivo, Triticum aestivum
In short: as §1

wild oat = experiment: Test B pre/postemergence wild oat; format: in vivo, Avena fatua
In short: as §1

purple nutsedge = experiment: Test B pre/postemergence purple nutsedge; format: in vivo, Cyperus rotundus
In short: as §1

rice = experiment: Test B flood test rice; format: in vivo, Oryza sativa
In short: (§2)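 Flood test on plants grown to the 2-leaf stage; treated plants kept in greenhouse twelve to sixteen days, then visually rated against controls on a 0 (no effect) to 10 (complete control) scale.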

duck salad = experiment: Test B flood test duck salad; format: in vivo, Heteranthera limosa
In short: as §2

[1] = Postemergence, Rate 125 g/ha, scale of 0 to 10 where 0 is no effect and 10 is complete control
[2] = Preemergence, Rate 62 g/ha, scale 0 to 10 (0 no effect, 10 complete control)
[3] = Preemergence, Rate 125 g/ha, 0 is no effect, 10 is complete control
[4] = Preemergence, Rate 250 g/ha, scale 0 to 10, 0 is no effect, 10 is complete control
[5] = Preemergence, Rate 500 g/ha, scale 0 to 10 (0 no effect, 10 complete control)
[6] = Rate 62 g/ha, Postemergence, scale of 0 to 10 where 0 is no effect and 10 is complete control
[7] = Rate 250 g/ha, Postemergence, scale 0 to 10, 0 is no effect, 10 is complete control
[8] = Rate 500 g/ha, Postemergence, scale 0 to 10
[9] = Rate 62 g/ha, headed Pre-emergence (flood test species), scale 0 to 10 (0 no effect, 10 complete control)
[10] = Rate 125 g/ha, Pre-emergence, flood test species, scale 0 to 10 where 0 is no effect and 10 is complete control
[11] = Rate 250 g/ha, headed Pre-emergence (flood test species), scale 0 to 10 (0 no effect, 10 complete control)
[12] = Rate 500 g/ha, headed Pre-emergence (flood test species), scale 0 to 10 (0 no effect, 10 complete control)

CC(C)N(C(=O)n1oc(=O)n(C(C)(C)C)c1=O)c1ccccc1 [Compound 129]
7: B. signalgrass plant response rating (surinam grass; [5]) | Crabgrass plant response rating (0 to 10 scale) (crabgrass; [3]) | Crabgrass plant response rating (crabgrass; [4]) | Giant foxtail plant response rating (giant foxtail; [2]) | Giant foxtail plant response rating (0 to 10 scale) (giant foxtail; [3]) | Redroot pigweed plant response rating (pigweed; [5])
5: Sugarbeets plant response rating (sugar beet; [5]) | Wild oats plant response rating (0 to 10 scale) (wild oat; [3]) | Ducksalad plant response rating (duck salad; [9]) | Ducksalad plant response rating (duck salad; [10]) | Ducksalad plant response rating (duck salad; [11]) | Plant response rating, Ducksalad (duck salad; [12])
4: Blackgrass plant response rating (blackgrass; [5]) | Plant response rating, B. signalgrass (surinam grass; [7]) | Corn plant response rating (corn; [5]) | Corn plant response rating (corn; [8]) | Crabgrass plant response rating (crabgrass; [1]) | Giant foxtail plant response rating (giant foxtail; [6]) | Plant response rating, Soybean (soybean; [7]) | Soybean plant response rating (soybean; [8]) | Velvetleaf plant response rating (velvetleaf; [4])
0: Bedstraw plant response rating (bedstraw; [1]) | Bedstraw plant response rating (bedstraw; [2]) | Bedstraw plant response rating (0 to 10 scale) (bedstraw; [3]) | Bedstraw plant response rating (bedstraw; [4]) | Bedstraw plant response rating (bedstraw; [5]) | Bedstraw plant response rating (bedstraw; [6]) | Blackgrass plant response rating (blackgrass; [1]) | Blackgrass plant response rating (blackgrass; [2]) | Blackgrass plant response rating (0 to 10 scale) (blackgrass; [3]) | Blackgrass plant response rating (blackgrass; [6]) | B. signalgrass plant response rating (surinam grass; [1]) | B. signalgrass plant response rating (surinam grass; [2]) | B. signalgrass plant response rating (surinam grass; [6]) | Cocklebur plant response rating (cocklebur; [1]) | Cocklebur plant response rating (cocklebur; [2]) | Cocklebur plant response rating (0 to 10 scale) (cocklebur; [3]) | Cocklebur plant response rating (cocklebur; [4]) | Cocklebur plant response rating (cocklebur; [6]) | Plant response rating, Cocklebur (cocklebur; [7]) | Cocklebur plant response rating (cocklebur; [8]) | Corn plant response rating (corn; [1]) | Corn plant response rating (corn; [2]) | Corn plant response rating (0 to 10 scale) (corn; [3]) | Corn plant response rating (corn; [6]) | Redroot pigweed plant response rating (pigweed; [1]) | Redroot pigweed plant response rating (pigweed; [2]) | Redroot pigweed plant response rating (pigweed; [6]) | Soybean plant response rating (soybean; [2]) | Soybean plant response rating (0 to 10 scale) (soybean; [3]) | Soybean plant response rating (soybean; [4]) | Sugarbeets plant response rating (sugar beet; [1]) | Sugarbeets plant response rating (sugar beet; [6]) | Plant response rating, Sugarbeets (sugar beet; [7]) | Sugarbeets plant response rating (sugar beet; [8]) | Velvetleaf plant response rating (velvetleaf; [1]) | Velvetleaf plant response rating (velvetleaf; [2]) | Velvetleaf plant response rating (0 to 10 scale) (velvetleaf; [3]) | Velvetleaf plant response rating (velvetleaf; [6]) | Plant response rating, Velvetleaf (velvetleaf; [7]) | Velvetleaf plant response rating (velvetleaf; [8]) | Wheat plant response rating (wheat; [1]) | Wheat plant response rating (wheat; [2]) | Wheat plant response rating (0 to 10 scale) (wheat; [3]) | Wheat plant response rating (wheat; [6]) | Wild oats plant response rating (wild oat; [1]) | Wild oats plant response rating (wild oat; [6]) | Nutsedge plant response rating (purple nutsedge; [1]) | Nutsedge plant response rating (purple nutsedge; [2]) | Nutsedge plant response rating (0 to 10 scale) (purple nutsedge; [3]) | Nutsedge plant response rating (purple nutsedge; [4]) | Nutsedge plant response rating (purple nutsedge; [5]) | Nutsedge plant response rating (purple nutsedge; [6]) | Plant response rating, Nutsedge (purple nutsedge; [7]) | Nutsedge plant response rating (purple nutsedge; [8]) | Rice plant response rating (rice; [9]) | Rice plant response rating (rice; [10])
3: Plant response rating, Bedstraw (bedstraw; [7]) | Bedstraw plant response rating (bedstraw; Rate 500 g/ha, Postemergence, scale 0 to 10, 0 no effect, 10 complete control) | Plant response rating, Blackgrass (blackgrass; [7]) | Blackgrass plant response rating (blackgrass; [8]) | Redroot pigweed plant response rating (pigweed; [8]) | Sugarbeets plant response rating (0 to 10 scale) (sugar beet; [3]) | Sugarbeets plant response rating (sugar beet; [4]) | Wheat plant response rating (wheat; [4]) | Wheat plant response rating (wheat; [5]) | Wild oats plant response rating (wild oat; [2])
9: Crabgrass plant response rating (crabgrass; [5]) | Crabgrass plant response rating (crabgrass; [8]) | Giant foxtail plant response rating (giant foxtail; [5]) | Plant response rating, Giant foxtail (giant foxtail; [7]) | Giant foxtail plant response rating (giant foxtail; [8])
8: Plant response rating, Crabgrass (crabgrass; [7]) | Giant foxtail plant response rating (giant foxtail; [4]) | Rice plant response rating (rice; [11])
1: Soybean plant response rating (soybean; [6])
6: B. signalgrass plant response rating (surinam grass; Rate 500 g/ha, Postemergence, scale of 0 to 10 where 0 is no effect and 10 is complete control) | Crabgrass plant response rating (crabgrass; [2]) | Giant foxtail plant response rating (giant foxtail; [1]) | Velvetleaf plant response rating (velvetleaf; [5]) | Wild oats plant response rating (wild oat; [4]) | Wild oats plant response rating (wild oat; [5]) | Plant response rating, Rice (rice; [12])
2: Blackgrass plant response rating (blackgrass; [4]) | B. signalgrass plant response rating (0 to 10 scale) (surinam grass; [3]) | Corn plant response rating (corn; [4]) | Plant response rating, Corn (corn; [7]) | Crabgrass plant response rating (crabgrass; [6]) | Redroot pigweed plant response rating (0 to 10 scale) (pigweed; [3]) | Redroot pigweed plant response rating (pigweed; [4]) | Plant response rating, Redroot pigweed (pigweed; [7]) | Soybean plant response rating (soybean; [1]) | Soybean plant response rating (soybean; [5]) | Sugarbeets plant response rating (sugar beet; [2]) | Plant response rating, Wheat (wheat; [7]) | Wheat plant response rating (wheat; [8]) | Plant response rating, Wild oats (wild oat; [7]) | Wild oats plant response rating (wild oat; [8])
